Drawing on paper doi:10.64898/2025.12.07.692800v1 (biorxiv, 2025), this text covers Kd and EC50 for one compound.

The target in assay [1] is T1, LAG-3-His (recombinant human LAG-3; discussed as LAG-3 D1) (Homo sapiens, UniProt P18627).
T1 sequence (P18627 23-450 limits assumed): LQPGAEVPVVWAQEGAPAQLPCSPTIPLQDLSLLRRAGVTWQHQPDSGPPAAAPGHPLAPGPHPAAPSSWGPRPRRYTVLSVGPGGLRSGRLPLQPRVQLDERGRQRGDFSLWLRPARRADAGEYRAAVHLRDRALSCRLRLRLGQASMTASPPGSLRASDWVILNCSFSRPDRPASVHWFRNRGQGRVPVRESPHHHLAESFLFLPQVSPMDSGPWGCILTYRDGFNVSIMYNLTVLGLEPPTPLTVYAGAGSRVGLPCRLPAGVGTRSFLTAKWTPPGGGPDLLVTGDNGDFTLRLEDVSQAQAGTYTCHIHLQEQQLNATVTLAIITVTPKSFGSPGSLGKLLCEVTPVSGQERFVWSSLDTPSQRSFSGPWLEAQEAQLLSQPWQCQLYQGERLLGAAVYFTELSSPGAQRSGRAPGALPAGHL
Briefly: MST. It counts as binding.

The target of assay [2] is T2, LAG-3 / MHCII (Revvity HTRF Human LAG-3 / MHCII Binding Kit) (Homo sapiens, UniProt P18627).
T2 sequence (P18627 23-450 limits assumed): T1 sequence (P18627 23-450 limits assumed)
Briefly: HTRF.

As a reminder, the Kd is the constant that tells how readily two partners part at equilibrium. Usually EC50 stands for the concentration at which the effect is half-maximal. A high value points to a need for much substance. On to `N#Cc1ccnnc1N1CCCC(c2c[nH]c3ncccc23)C1` (centres unmarked) [N05], for which the Kd in assay [1] was 59.2 µM. The midpoint of the response in assay [2], the EC50, lay at 42.9 µM.
